From publication PMC8710297, “Identification of potent SENP1 inhibitors that inactivate SENP1/JAK2/STAT signaling pathway and overcome platinum drug resistance in ovarian cancer” (Clinical and Translational Medicine, 2021)

How the values were obtained:
IGROV1 CR cells [1] = assay: Viability of IGROV1 CR cells treated with compound alone (SRB); assay type: cell-based; settings: 48 hrs
Method: Cel l proliferation was determined by SR B assay. (B) Viability of IG ROV 1 CR cells treated by indicated compounds fo r 48 hrs. SRB assay wa s used to determine cell viabil ity. […]
1. Antibodies and re a ge nt s […]
[…] Momordin Ic ( A14773; Adooq Biosc ience) was dissolved in DMSO. Ursolic acid (A10961; Adooq Bioscience) wa s dissolved in DMSO. Collection of Mc natural compound an alogs were pu rch ase d fro m Sigma. Detailed proced ure to sy nt h e s ize UA derivatives was in c lu d ed in suppleme ntal material and methods.
2. Cell culture and resistance cell line establishment […]
were cultured at 37 °C in DM EM with 10% Fe ta l Bovine Serum (F BS). All th e cells were cultured at in a humidified incubator with 5% CO2 atmo s phe re.
3. In vitro SUMOylation and de‐SU MOylation assays
The SUMO yl ation re ac tions were performed according to th e manufacture’s instruction (BML‐UW8955‐ 0001; ENZO) and were described previously (1) . Briefly, 200 nM of purified HIS‐JAK 2 wa s mixed wit h reco mbinant SUMOs in reac ti on bu ffer (20 μl) containing Mg‐ AT P, SUMO E1, and SUMO E2, followed by incubation at 37°C fo r 60 min. […]
Cell viability was detected using Sulforhodamine B (SRB) assay as described previously (3).
Absorbance at 51 0 nm was detected using a SpectraMax Re a d e r (Molecular Devices) and an alyzed with SoftMax Analys is Software (Molecular Devices). […]

IGROV1 CR cells [2] = assay: Drug synergy screening: SRB proliferation assay with 2 μM cisplatin; assay type: cell-based
Method: (A) Collection of Momordin Ic (Mc) natural compound analogues. […] Cell proliferation was determined by the sulforhodamine B (SRB) assay. […] IGROV1 CR cells were incubated with Mc at indicated concentrations for 48 h and then harvested for Western blot for indicated proteins. […] IGROV1 CR cells were incubated with UA and then treated as in C. […] Intensity of SUMOylated JAK2 was measured by Quantity One software. […] Recombinant His‐JAK2 was SUMOylated by in vitro SUMOylation assay, and then SUMOylated JAK2 proteins were incubated with or without recombinant GST‐SENP1 together with Mc for 3 h. […] In vitro assay was performed as in (F). […]

**Q.** Which results are given for `C[C@H]1[C@H](C)CC[C@]2(C(=O)OCCNC(=O)OC(C)(C)C)CC[C@]3(C)C(=CC[C@@H]4[C@@]5(C)CC[C@H](O)C(C)(C)[C@@H]5CC[C@]43C)[C@H]12` [UAMMC3]?
**A.** toxicity to cells of compound alone (IGROV1 CR cells [1]): higher toxicity; IC50 of UA derivatives to inhibit resistant cells together with cisplatin (in words) (IGROV1 CR cells [2]): lower IC50

**Q.** `C[C@H]1[C@H](C)CC[C@]2(C(=O)OCC(=O)NCCO)CC[C@]3(C)C(=CC[C@@H]4[C@@]5(C)CC[C@H](O)C(C)(C)[C@@H]5CC[C@]43C)[C@H]12` [UAMMC5] was tested. Which “toxicity to cells of compound alone” value (IGROV1 CR cells [1]) did it give?
**A.** higher toxicity

**Q.** What about the “IC50 of UA derivatives to inhibit resistant cells together with cisplatin (in words)” value (IGROV1 CR cells [2]) of the same compound?
**A.** lower IC50
